According to patent US5760001A, “Cytokine restraining agents and methods of use in pathologies and conditions associated with altered cytokine levels” (Trega Biosciences, Inc., priority 1995, dated 1998):

Experiments:
Assay type in all cases: in vivo
[1] = tested on: Adult male Sprague-Dawley rats; assay: Disuse deconditioning (tail suspension) in rats; details: 1 or 5 μg/kg IP twice daily
Description: Adult male Sprague-Dawley rats (355-365 g) were used in this study. Animals were housed individually in standard rat cages and were acclimated on a treadmill for 4 days. The next day, a baseline tail bleed was performed, followed by a maximal treadmill stress test the day after. The day following the stress test, the animals were divided into the appropriate treatment and control groups and the animals were suspended by their tails in suspension cages, which simulates weightlessness and, therefore, deconditions the animals. Another group of control animals was placed in standard rat cages with grated flooring similar to that utilized in the suspension cages. All animals were housed one per cage and supplied with food and water ad libitum. Body weights and food consumptions were measured daily Animals received twice daily IP injections of 1 μg/kg or 5 μg/kg body weight of EX-2 (treated), or 1 ml/kg body weight of saline (control). On day 10, all animals were stress tested on the treadmill until they reached exhaustion. Data on maximum VO2 and running time were collected and compared to pre-suspension results. On day 14, all animals were sacrificed, and blood, tissues, and organs were collected for further analysis. All procedures and tests were performed blind to avoid researcher subjectivity. Statistical significance (p<0.05) between groups was evaluated by ANOVA with Student-Newman-Keuls test for multiple comparisons. All data are reported as the mean±standard error (SE).
All of the animals were subjected to the stress tests, which measured exercise time and maximal VO2. As well, levels of the oxidative enzyme soleus citrate synthase and tibia bone density were measured.
Soleus citrate synthase was attenuated by 50%.

male Sprague-Dawley rats [2] = assay: Streptozotocin-induced diabetes; details: STZ 65 mg/kg iv; EX-2 150 μg/kg every 8 hr for 72 hr
Description: Male Sprague-Dawley rats were given 65 mg/kg of streptozotocin (STZ) intravenously through the tall vein. Rats were divided into two groups. The first group was administered EX-2, 150 μg/kg every 8 hr for 72 hr and the second group was a control. Blood samples were withdrawn under ether anesthesia every 8 hr for the first 72 hr, then every 12 hr or 24 hr until the end of the observation period. Plasma samples were assayed for glucose using a glucose assay kit (Trinder, Sigma Chemical Co.). As shown in Table VI below EX-2 effect a 72% reduction in blood glucose levels.

TNF-α = assay: Reduction of LPS-induced TNF levels in mice (IP dosing); details: 30 μg/mouse IP before LPS 5 mg/kg IP; vs untreated control mice
Description: Balb/c female mice weighing approximately 20 g were placed into two groups, a control group and a treated group. Five mg/kg of LPS in 0.9% saline was administered by intraperitoneal (IP) injection into the control mice. Mice in the treated group were first injected IP with 30 μg EX-2 or 150 μg EX-3 in saline, then, one mn after EX-2 or EX-3 was administered, the mice received LPS as described for the control group.
Blood samples were collected from the orbital sinus of treated and control mice at various times up to four hr after LPS was administered. The plasma was separated by centrifugation at 3000×g for 5 min, then diluted with four volumes of 1× phosphate buffer saline (pH 7.4) containing 1% bovine serum albumin. A 100 μl sample of serum was assayed by ELISA for TNF-α (Genzyme; Cambridge Mass.).
The mean (±SEM) TNF-α level in six mice from each group was determined and the percent reduction in TNF levels was calculated.

adult female Balb/c mice = assay: LPS-induced lethality (IP dosing); details: 11 × 300 μg/mouse IP (3.3 mg), every 4 hr; 0.6 mg LPS; vs control mice
Description: These experiments were performed based on information reported by Rivier et al., Endocrinology 125:2800-2805 (1989), which is incorporated herein by reference. Adult female Balb/c mice were provided food and water ad libitum. Mice were injected IP every four hr for 40 hr with 30 to 300 μg EX-2, EX-3 or EX-4 in 0.2 ml saline (treated group) or with 0.2 ml saline, alone (control group) (10 mice per group). Immediately following the first injection, 0.6 mg LPS endotoxin in 0.2 ml saline was administered to each mouse. Following LPS injection, EX-2 or saline was administered to the treated mice or the control mice, respectively, every 4 hr for 36 hr.

male Sprague-Dawley rats [3] = assay: Cyclosporine-induced nephrotoxicity; details: for extracellular fluid volumes (ECF): second study, control 27.6±1.9, CsA and vehicle 27.5±1.7
Description: In the first study, male Sprague-Dawley rats (n=43) with a weight range of 240-290 g at the initiation of the cyclosporine A (CsA) treatment were divided into 4 weight matched groups. The groups were as follows: (1) Control: no CsA, no EX-2, treatment only with CsA vehicle (PBS) PO and EX-2 vehicle (also PBS) IP; (2) CsA: treatment with CsA (50 mg/kg in PBS administered PO daily at 0830 hr for 9 days) and IP injections of PBS (Ex-2 vehicle); (3) CsA and 50 μg: CsA treatment identical to group 2 with the addition of EX-2 (50 μg/kg IP administered daily at 0800 and 1700 hr in EX-2 vehicle); and (4) CsA and 500 μg: CsA treatment identical to groups 2 and 3, and EX-2 treatment protocol similar to group 3 except that the dose of EX-2 was 500 μg/kg BW. After deep anesthesia was assured, the rats were cannulated in the trachea (PE 240) jugular vein, femoral artery, and bladder (PE 50 for the previous 3 cannulations).After cannulation, infusion of ^3 H-inulin was initiated 50 min prior to the measurement period to assess glomerular filtration rate, renal blood flow and plasma flow. Renal blood flow was determined by the inulin extraction technique. At the end of the study, the kidneys were removed for histological analysis.
In the second study, male Sprague-Dawley rats (n=31) with a weight range of 240-290 g at the time of initiation of the cyclosporine treatment were divided into 4 weight-matched groups. The time course and protocol of this study matched the first study with the following exceptions: (1) The daily dose of CsA was reduced to 30 mg/kg and was administered subcutaneously (SC) and (2) the 50 μ/kg dose of EX-2 was substituted with a twice daily dose of 200 μg/kg. The 500 μg/kg dose of EX-2 was repeated in this study. Renal hemodynamics were determined and extracellular fluid volumes were also assessed.
In the second studio, where extracellular fluid volumes (ECF) were measured, there were no differences in ECF among control and treatment groups (27.6±1.9 in control, 27.5±1.7 in CsA and vehicle, 26.2±0.9 in CsA+200 μg/kg EX-2, and 25.7±1.4% in CsA+500 μg/kg EX-2).
The results from the two experiments are shown in FIGS. 1a and 1b and provide evidence that a cytokine restraining peptide of the present invention reduces cyclosporine-induced nephrotoxicity and the damage caused thereby.

Ac-Nle-Gln-His-(D)Phe-Arg-(D)Trp-Gly-NH2 [EX-2]
Soleus Citrate Synthase, % Attenuation of suspension-induced decrease ([1]; 14 days suspension): 50% | Tibia Bone Density, % Attenuation of suspension-induced decrease ([1]; 14 days suspension): 50% | Exercise Time, % Attenuation of suspension-induced decrease ([1]; treadmill stress test day 10): 44% | Maximal VO2, % Attenuation of suspension-induced decrease ([1]; treadmill stress test day 10): 80% | STZ Diabetes: Blood Glucose (mg/dl), % Reduction of induced increase (male Sprague-Dawley rats [2]): 72% | Reduction in TNF levels (TNF-α): 50% | Inhibition of LPS-induced Lethality (increase in survival) (adult female Balb/c mice): 83% | changes in ECF as a result of treatment (male Sprague-Dawley rats [3]; CsA-treated rats): no changes | renal blood flow (male Sprague-Dawley rats [3]; CsA-treated rats): not different from control | urinary protein excretion compared to CsA-treated rats (male Sprague-Dawley rats [3]; CsA-treated rats): did not increase | urinary protein excretion normalized to glomerular filtration rate (male Sprague-Dawley rats [3]; CsA-treated rats): trend to decreased | GFR compared to CsA and vehicle controls (male Sprague-Dawley rats [3]; both studies, CsA-treated rats): significantly increased | extracellular fluid volumes (ECF) (male Sprague-Dawley rats [3]; CsA 30 mg/kg SC + 200 μg/kg EX-2 twice daily): 26.2±0.9% | extracellular fluid volumes (ECF) (male Sprague-Dawley rats [3]; CsA 30 mg/kg SC + 500 μg/kg EX-2 twice daily): 25.7±1.4%
